Source: PubChem BioAssay AID200 (DTP/NCI, 2004)
Several values for one entry are separate records, joined by “and”; a condition that tells them apart may be missing. Equal values may be shown once. Inconclusive results and toxic doses are left out. The calls were made as follows: active = survival T/C of 150% or more; inactive = T/C below 125% in these data.

System: B6C3F1 mice, B16 melanoma ip, median survival T/C
Assay: NCI In Vivo Anticancer Drug Screen. Data for tumor model B16 Melanoma (intraperitoneal) in B6C3F1 mice
Settings: endpoint: median survival time, higher = longer survival
In short: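 Values are T/C ratios: the measurement in treated animals divided by that in vehicle-treated controls, using survival or tumor size in mice carrying transplantable tumors.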

[1] = dose: 200.0 mg/kg/injection, schedule: Q01DX009 (ip), vehicle: saline
[2] = dose: 400.0 mg/kg/injection, schedule: Q01DX009 (ip), vehicle: saline
[3] = dose: 12.5 mg/kg/injection, schedule: Q01DX009 (ip), vehicle: saline with Tween-80
[4] = dose: 25.0 mg/kg/injection, schedule: Q01DX009 (ip), vehicle: saline with Tween-80
[5] = dose: 50.0 mg/kg/injection, schedule: Q01DX009 (ip), vehicle: saline with Tween-80
[6] = dose: 100.0 mg/kg/injection, schedule: Q01DX009 (ip), vehicle: saline with Tween-80
[7] = dose: 25.0 mg/kg/injection, schedule: Q01DX009 (ip), vehicle: saline
[8] = dose: 50.0 mg/kg/injection, schedule: Q01DX009 (ip), vehicle: saline
[9] = dose: 200.0 mg/kg/injection, schedule: Q01DX009 (ip), vehicle: saline with Tween-80
[10] = dose: 50.0 mg/kg/injection, schedule: Q01DX009 (ip), vehicle: Klucel (hydroxypropylcellulose) (HPC)
[11] = dose: 100.0 mg/kg/injection, schedule: Q01DX009 (ip), vehicle: Klucel (hydroxypropylcellulose) (HPC)
[12] = dose: 12.5 mg/kg/injection, schedule: Q01DX009 (ip), vehicle: saline

Measured: T/C

NC(CO)(CO)CO
inactive: [1] 104 % of control | dose: 200.0 mg/kg/injection, schedule: Q12HX018 (ip), vehicle: saline 102 % of control | [2] 102 % of control | dose: 400.0 mg/kg/injection, schedule: Q12HX018 (ip), vehicle: saline 102 % of control | dose: 800.0 mg/kg/injection, schedule: Q01DX009 (ip), vehicle: saline 98 % of control | dose: 800.0 mg/kg/injection, schedule: Q12HX018 (ip), vehicle: saline 106 % of control | dose: 1600.0 mg/kg/injection, schedule: Q01DX009 (ip), vehicle: saline 98 % of control | dose: 1600.0 mg/kg/injection, schedule: Q12HX018 (ip), vehicle: saline 101 % of control

CN=S(=O)(OCCCCCOS(=O)(=NC)c1ccc(C)cc1)c1ccc(C)cc1 (stereo not given)
inactive: [3] 94 % of control | [4] 104 % of control | [5] 113 % of control | [6] 123 % of control

CC(=O)C1=C(O)C2(O)C(=O)c3c(c(C)c4ccc(C)c(O)c4c3O)CC2C(N)C1=O (stereo not given)
inactive: dose: 3.75 mg/kg/injection, schedule: Q01DX009 (ip), vehicle: saline + alcohol 109 % of control | dose: 7.3 mg/kg/injection, schedule: Q01DX009 (ip), vehicle: saline + alcohol 120 % of control | dose: 7.5 mg/kg/injection, schedule: Q01DX009 (ip), vehicle: saline + alcohol 114 % of control

Cc1cc(NCCCCCCCCNc2cc(C)nc3cc(N(C)C)ccc23)c2ccc(N(C)C)cc2n1
inactive: dose: 3.12 mg/kg/injection, schedule: Q01DX009 (ip), vehicle: distilled water + Tween-80 105 % of control | dose: 6.25 mg/kg/injection, schedule: Q01DX009 (ip), vehicle: distilled water + Tween-80 115 % of control | dose: 25.0 mg/kg/injection, schedule: Q01DX009 (ip), vehicle: distilled water + Tween-80 121 % of control

C=C1C(=O)C2=CC1CCC(=O)C1(C)CCC(OC(C)=O)C(C)(C)C1CC2O (stereo not given)
inactive: dose: 1.88 mg/kg/injection, schedule: Q01DX009 (ip), vehicle: Klucel (hydroxypropylcellulose) (HPC) 96 % of control | dose: 3.75 mg/kg/injection, schedule: Q01DX009 (ip), vehicle: Klucel (hydroxypropylcellulose) (HPC) 104 % of control and 106 % of control | dose: 7.5 mg/kg/injection, schedule: Q01DX009 (ip), vehicle: Klucel (hydroxypropylcellulose) (HPC) 111 % of control and 89 % of control | dose: 15.0 mg/kg/injection, schedule: Q01DX009 (ip), vehicle: Klucel (hydroxypropylcellulose) (HPC) 114 % of control and 100 % of control | dose: 30.0 mg/kg/injection, schedule: Q01DX009 (ip), vehicle: Klucel (hydroxypropylcellulose) (HPC) 118 % of control and 104 % of control

Cc1ccc(C)c2c1CCC2C (stereo not given)
inactive: [5] 93 % of control | [6] 86 % of control

CCCCCCCCCCCCCCCCC(C(=O)O)C(O)(CC(=O)O)C(=O)O (stereo not given)
inactive: dose: 8.75 mg/kg/injection, schedule: Q01DX009 (ip), vehicle: Klucel (hydroxypropylcellulose) (HPC) 95 % of control | dose: 17.5 mg/kg/injection, schedule: Q01DX009 (ip), vehicle: Klucel (hydroxypropylcellulose) (HPC) 91 % of control | dose: 35.0 mg/kg/injection, schedule: Q01DX009 (ip), vehicle: Klucel (hydroxypropylcellulose) (HPC) 100 % of control | dose: 70.0 mg/kg/injection, schedule: Q01DX009 (ip), vehicle: Klucel (hydroxypropylcellulose) (HPC) 93 % of control

C=C(NC(=O)C(=C)NC(=O)c1csc(C2=NC3c4csc(n4)C4NC(=O)c5csc(n5)C(C(C)(O)C(C)O)NC(=O)C5CSC(=N5)/C(=C/C)NC(=O)C(C(C)O)NC(=O)c5csc(n5)C3(CC2)NC(=O)C(C)NC(=O)C(=C)NC(=O)C(=C)NC(=O)C(C(C)C)NC2C=Cc3c(C(C)O)cc(nc3C2O)C(=O)OC4C)n1)C(N)=O (stereo not given)
inactive: [7] 121 % of control | [8] 109 % of control | [1] 121 % of control

CS(=O)(=O)CS(=O)(=O)OCCCl
inactive: dose: 6.25 mg/kg/injection, schedule: Q01DX009 (ip), vehicle: saline with Tween-80 114 % of control | [3] 116 % of control
active: [4] 169 % of control and 178 % of control | [5] 228 % of control and 270 % of control | [6] 331 % of control

C1CCN(c2c3c(nc4nnnn24)CCC3)CC1
inactive: [5] 91 % of control | [6] 104 % of control | [9] 92 % of control

CCCCC(NC(=O)C(C)N)C(=O)O (stereo not given)
inactive: [10] 102 % of control | [11] 107 % of control | dose: 200.0 mg/kg/injection, schedule: Q01DX009 (ip), vehicle: Klucel (hydroxypropylcellulose) (HPC) 96 % of control | dose: 400.0 mg/kg/injection, schedule: Q01DX009 (ip), vehicle: Klucel (hydroxypropylcellulose) (HPC) 93 % of control

Oc1ccc(O)cc1
inactive: dose: 3.13 mg/kg/injection, schedule: Q01DX009 (ip), vehicle: saline 101 % of control | dose: 6.25 mg/kg/injection, schedule: Q01DX009 (ip), vehicle: saline 88 % of control | [12] 95 % of control | [7] 110 % of control | [8] 98 % of control

Clc1ccccc1C(Nc1cnccn1)Nc1cnccn1
inactive: [4] 95 % of control and 101 % of control | [5] 98 % of control and 107 % of control | [6] 118 % of control and 108 % of control | [9] 116 % of control

CCCCCNc1ncnc2c(C)[nH]nc12
inactive: dose: 25.0 mg/kg/injection, schedule: Q01DX009 (ip), vehicle: Klucel (hydroxypropylcellulose) (HPC) 100 % of control | [10] 91 % of control | [11] 86 % of control

Cc1ncc(CO)c(CO)c1O
inactive: dose: 50.0 mg/kg/injection, schedule: Q03HX009 (ip), vehicle: suspension in saline 106 % of control | dose: 100.0 mg/kg/injection, schedule: Q03HX009 (ip), vehicle: suspension in saline 102 % of control | dose: 200.0 mg/kg/injection, schedule: Q03HX009 (ip), vehicle: suspension in saline 102 % of control | dose: 400.0 mg/kg/injection, schedule: Q03HX009 (ip), vehicle: suspension in saline 98 % of control | dose: 800.0 mg/kg/injection, schedule: Q03HX009 (ip), vehicle: suspension in saline 96 % of control

CCOC(=O)C(N)CSC(=O)NC (stereo not given)
inactive: [12] 103 % of control and 106 % of control | [7] 108 % of control and 92 % of control | [8] 103 % of control and 106 % of control | dose: 100.0 mg/kg/injection, schedule: Q01DX009 (ip), vehicle: saline 108 % of control and 93 % of control | [1] 109 % of control | [2] 124 % of control

CCCCCCCC(=O)N/N=C(\CO)[C@]1(O)Cc2c(O)c3c(c(O)c2[C@@H](OC2CC(N)C(O)C(C)O2)C1)C(=O)c1c(OC)cccc1C3=O (stereo not given in full)
active: dose: 1.5 mg/kg/injection, schedule: Q01DX009 (ip), vehicle: saline 154 % of control | dose: 1.5 mg/kg/injection, schedule: Q01DX009 (ip), vehicle: water 171 % of control | dose: 3.0 mg/kg/injection, schedule: Q01DX009 (ip), vehicle: saline 196 % of control | dose: 3.0 mg/kg/injection, schedule: Q01DX009 (ip), vehicle: water 199 % of control | dose: 6.0 mg/kg/injection, schedule: Q01DX009 (ip), vehicle: saline 216 % of control | dose: 6.0 mg/kg/injection, schedule: Q01DX009 (ip), vehicle: water 320 % of control | dose: 12.0 mg/kg/injection, schedule: Q01DX009 (ip), vehicle: saline 208 % of control | dose: 12.0 mg/kg/injection, schedule: Q01DX009 (ip), vehicle: water 320 % of control | dose: 24.0 mg/kg/injection, schedule: Q01DX009 (ip), vehicle: saline 208 % of control

C=C(C)C(=O)OCC12CCC(C)=CC1OC1C(O)C(OC(=O)CCl)C2(C)C12CO2 (stereo not given)
active: dose: 0.5 mg/kg/injection, schedule: Q01DX009 (ip), vehicle: water 163 % of control | dose: 1.0 mg/kg/injection, schedule: Q01DX009 (ip), vehicle: water 163 % of control | dose: 2.0 mg/kg/injection, schedule: Q01DX009 (ip), vehicle: water 159 % of control

NC(=O)/C=C/C(=O)c1c(Cl)cccc1Cl
inactive: dose: 0.78 mg/kg/injection, schedule: Q01DX009 (ip), vehicle: saline with Tween-80 100 % of control | dose: 1.56 mg/kg/injection, schedule: Q01DX009 (ip), vehicle: saline with Tween-80 103 % of control | dose: 3.12 mg/kg/injection, schedule: Q01DX009 (ip), vehicle: saline with Tween-80 90 % of control

C=C(C)[C@]12CC(C)C34OC(/C=C\C=C\CCCCCCCCC)(O[C@@H]1[C@@H]3[C@@H]1O[C@]1(CO)[C@@H](O)[C@]1(O)C(=O)C(C)=C[C@@H]41)O2 (stereo not given in full)
inactive: dose: 0.09 mg/kg/injection, schedule: Q01DX009 (ip), vehicle: distilled water + alcohol 110 % of control | dose: 0.18 mg/kg/injection, schedule: Q01DX009 (ip), vehicle: distilled water + alcohol 110 % of control | dose: 0.37 mg/kg/injection, schedule: Q01DX009 (ip), vehicle: distilled water + alcohol 104 % of control
